Laboratory results: US20110098177A1, “METHODS AND COMPOSITIONS OF PLANT MICRONUTRIENTS” (NOVUS INTERNATIONAL INC., priority 2006, published 2011)
Read-outs that look alike come from different tables or passages of the source.

Key:
Assay type in all cases: in vivo
Aristotle bell pepper = tested on: Aristotle bell pepper
Description: (§1) The following experiments were performed in a green house during the fall of 2007 at GCREC, Balm, University of Florida. Fifteen products, at 3 different application rates were examined. The plot size was 2-gallon pots. Crop set-up, procedures and variables were as follows.
(§2) Transplants of ‘Florida-47’ tomato and ‘Aristotle’ bell pepper plants in the 4-true leaf stage (about 6 inches tall) were planted in 2-gal pots on Aug. 27, 2007. Pots were filled with a commercially available planting medium. This medium was selected based on the mineral composition of the products to be applied without providing significant nutritional inputs to the crops. Irrigation was provided with drip lines delivering between 0.50 and 0.33 gal/day/pot for tomato and bell pepper, respectively, and the crops were irrigated three times per day. No foliar pesticides were necessary.
(§3) There were four control treatments corresponding to each target micronutrient in which non-Fe, non-Mn, non-Zn or non-Cu pots received all other essential nutrients under non-limiting conditions.
(§4) Treatments were applied at three rates (high, medium and low) obtained from the estimated concentration of Zn, Fe, Cu, and Mn foliarly-applied in tomato and bell pepper in field situations (Table 1). Products were weighed and dissolved in 200 ml of deionized water with a non-ionic surfactant and applied to the newly-matured open leaves of each crop at 3 and 7 weeks after transplant (WAT). Treated pots were isolated during application to avoid cross-contamination of other treatments.
(§5) Medium nutrient concentration was determined 1 week before treatment. The mineral composition of the medium was 26.8 ppm NH4—N, 49 ppm NO3—N, 15.8 ppm P, 91.2 ppm K, 82.3 ppm Ca, 58.2 ppm Mg, 23.9 ppm Na, 125.6 ppm S, 1.33 ppm Fe, 0.39 ppm Mn, 0.35 ppm Zn, 0.05 pp, Cu, 0.04 ppm B, 0 ppm Mo, 0.73 ppm Al, and 12.1 ppm Si. The pH of the medium was 5.36 and the electric conductivity was 1.38 mS/cm. The foliar tissue analysis was performed at 6 WAT and the concentration of N, P, K, Mg, Ca, S, B, Zn, Mn, Fe, and Cu was determined by a commercial laboratory. Plant toxicity was determined at 4 WAT by using a 0-10 visual scale, where 0=no visible damage and 10=total plant death. Marketable fruit weight was collected 2 times in bell pepper and 4 times in tomato following USDA standards.
(§6) Data were analyzed using a general linear model, and means were separated using orthogonal contrasts at the 5% significance level.

Florida-47 tomato = tested on: Florida-47 tomato
Description: as §1, §2, §3, §4, §5, §6

Tygress tomato plants [1] = test: Foliar nutrient concentration at 6 WAT, open-field tomato (Examples 7-10); settings: in vivo
Description: The following experiments were performed in open-field plots during the spring of 2008 at GCREC, Balm, University of Florida. Four products delivering Zn (BIOX-Z), Mn (BIOX-M), Cu (BIOX-Cu), and Fe (BIOX-Fe) were compared to other micronutrient supplement formulations in tomato and bell pepper plants.
The plot sizes for the tomato plants were 30-ft plots (15 plants per plot) and 15-ft plots were used for the bell pepper plants (30 plants per plot). Crop set-up, procedures and variables were as follows.
Transplants of ‘Tygress’ tomato plants and ‘Patriot’ bell pepper plants in the 4-true leaf stage (about 6 inches tall) were planted in raised beds in open-field plots. The cross-section of each raised bed was 28 inches wide at the top, 32 inches wide at the base, and 8 inches tall. Irrigation and non-micronutrient fertilizer were provided daily through two drip lines per bed (0.45 gal/100 ft bed/min) at recommended rates for tomato and bell pepper production in Florida. […] The height of the plants for each of the treatment groups was measured at 3 weeks after transplantation (WAT), just prior to treatment with the experimental foliar fertilizers.
All foliar fertilizers except BIOX-CM were applied to the various treatment groups at 3 weeks after transplantation (WAT) and again at 5 WAT. The BIOX-CM treatment was applied at 4 and 5 WAT. The working water volume was 60 gal/acre and a non-ionic surfactant (Ad-Spray 80) was added in the amount of 2 pints/100 gal water. All plots were sprayed with sprayers pressurized at 25 psi and the canopies of both crops were covered with the micronutrient solutions. Treated plots were isolated during foliar fertilizer application to avoid the cross-contamination of other treatments on adjoining plots.
Leaf samples were collected from the most recent mature leaves from each plant at 6 WAT (2 weeks after initial treatment). Foliar tissue analysis was performed by a commercial laboratory to determine the concentration of N, P, K, Mg, Ca, B, Zn, Mn, Fe, and Cu. Tomato marketable fruit weights were collected at 10 and 12 WAT, and the fruits were graded according to USDA standards. Pepper marketable fruit weights were determined beginning at 5 WAT over 5 weekly harvests. Fruit mineral analysis (N, P, K, Mg, Ca, B, Zn, Mn, Fe, and Cu) was performed on samples from the tomato harvest.
The experimental design was a randomized complete block design with 5 replications for each treatment. All comparison data were analyzed using a general linear model and the means of each treatment were separated with a Fisher's protected LSD test at the 5% significance level.

Tygress tomato plants [2] = test: Foliar nutrient concentration at 7 WAT, greenhouse tomato spring 2009 (Examples 13-15)
Description: (§7) The following experiments were performed in a green house during the spring of 2009 at GCREC, Balm, University of Florida. Crop set-up, procedures and variables were as follows.
(§8) Transplants of ‘Tygress’ tomato plants were planted in 2-gallon pots filled with commercial planting medium with nutrient concentration of Fe, Zn, Mn, Cu being negligible and insufficient for crop growth. Irrigation and non-micronutrient fertilizer were provided daily through microsprinklers at recommended rates for tomato production in Florida. No pesticides were used. Treatments were as described in Tables 42, 43, and 44 below. BIOX-Cu was compared to Cu-sulfate, BIOX-EDC, and BIOX-O; and BIOX-Fe was compared to Fe-sulfate and BIOX-EDF. BIOX-MEZ is Ca-HMTBA.
(§9) Treatments were applied at 6 WAT (weeks after transplanting) using a water volume of 200 mL/plant. Deionized water was used for foliar applications. A non-ionic surfactant was added. Other nutrients were applied as appropriate under non-limiting conditions.
Foliar tissue nutrient analysis was performed at 3 WAT (i.e., 3 weeks before treatment) and 7 WAT (i.e., 1 weeks after treatment) on the non-applied newest leaves. The concentrations of N, P, K, Mg, Ca, B, Zn, Mn, Fe, and Cu in the foliar tissue were determined by a commercial laboratory. There were no significant differences between the foliar nutrient concentrations of any of the treatment groups prior to treatment.
(§10) Experimental design was a randomized complete block design with 6 replications. Data were analyzed using a general linear model, and means were separated using an LSD test at the 5% significance level.

Tygress tomato plants [3] = test: Yields of tomato fruits, greenhouse spring 2009 (Examples 13-15)
Description: as §7, §8, §9
Marketable fruit were collected three times during the growing season, starting at 10 WAT (4 weeks after the initial treatment). Tomato fruit was graded as marketable and non-marketable. Marketable fruit was sized as extra-large, large, and medium. Non-marketable fruit were harvested and number and weight recorded but not sized.
as §10

Tygress tomato plants [4] = settings: for Toxicity (0-10): 0=no injury, 10=plant death
Description: as §7, §8, §9
Toxicity of the treatments was assessed by rating foliar tissue using a visual scale, where 0=no injury and 10=plant death.
as §10

[5] = High rate, 1 week after treatment, scale 0 = no visible injury, 10 = plant death
[6] = Low rate, 1 week after treatment, scale 0 = no visible injury, 10 = plant death
[7] = Medium rate, 1 week after treatment, scale 0 = no visible injury, 10 = plant death
[8] = tomato and bell pepper plants stated together, Fall 2007 greenhouse
[9] = BIOX-Cu at 0.46 and 0.55 lb/acre, Cu-sulfate at 0.8 lb/acre, BIOX-EDC at 0.4 lb/acre

With `NCC(=O)[O-].NCC(=O)[O-].[Cu+2]` [BIOX-GC, copper glycinate] the Pepper toxicity (Aristotle bell pepper; in vivo) was 7, the “Foliar injury (in words)” value (Florida-47 tomato; in vivo) was “from light leaf speckling to severe necrosis and plant decay” and the Tomato toxicity (Florida-47 tomato; in vivo) was 7. For the same molecule, the Toxicity scale score (Florida-47 tomato; in vivo) was 7 and the “Foliar Zn concentration of tomato plants, statement” value (Tygress tomato plants [1]) was “slightly higher foliar Zn concentration”.

With `O=S(=O)([O-])[O-].[Fe+2]` [BIOX-INI, ferrous sulfate] the Pepper toxicity (Aristotle bell pepper; in vivo) was 7, the “Foliar injury (in words)” value (Florida-47 tomato; in vivo) was “from light leaf speckling to severe necrosis and plant decay” and the Tomato toxicity (Florida-47 tomato; in vivo) was 7. The Toxicity scale scores (Florida-47 tomato; in vivo) was 7-9, the “Foliar Fe concentration in tomato leaves, statement” value (Tygress tomato plants [2]; 7 WAT (1 week after treatment)) was “highest Fe concentrations” and the “Marketable tomato yields compared to non-treated control, statement” value (Tygress tomato plants [3]; BIOX-Fe at all levels, Fe-sulfate at 2.0 lb/acre, BIOX-EDF at 0.3 lb/acre) was “decreased marketable yields relative to the non-treated control”. The “Toxicity relative to the non-treated control, statement” value (Tygress tomato plants [4]; all levels of BIOX-Fe, Fe-sulfate at 2.0 lb/acre, BIOX-EDF at 0.3 lb/acre) was “increased toxicity”.

For `O=S(=O)([O-])[O-].[Cu+2]` [Cu sulfate], the “Foliar Cu concentration” value (Tygress tomato plants [2]; Cu 0.8 lb/acre, tomato leaves 1 week after treatment) was 986 ppm, the Marketable yield (Tygress tomato plants [3]; Cu 0.8 lb/acre) was 1200 b g/plant and the “Toxicity (0-10)” value (Tygress tomato plants [4]; Cu 0.8 lb/acre) was 6.

In the case of `O=S(=O)([O-])[O-].[Fe+2]` [Fe sulfate], the “Foliar Fe concentration” value (Tygress tomato plants [2]; Fe 2.0 lb/acre, tomato leaves 1 week after treatment) was 888 ppm, the Marketable yield (Tygress tomato plants [3]; Fe 2.0 lb/acre) was 1100 g/plant and the “Toxicity (0-10)” value (Tygress tomato plants [4]; Fe 2.0 lb/acre) was 5.

EDTA chelated copper [BIOX-EDC] was tested, and the Pepper toxicity (Aristotle bell pepper; [5]) was 8, the Pepper toxicity (Aristotle bell pepper; [6]) was 8 and the Pepper toxicity (Aristotle bell pepper; [7]) was 8. For the same molecule, the Tomato toxicity (Florida-47 tomato; [5]) was 8, the Tomato toxicity (Florida-47 tomato; [6]) was 8 and the Tomato toxicity (Florida-47 tomato; [7]) was 8. For the same molecule, the Toxicity scale score (Florida-47 tomato; comparable ranges of copper concentrations (0.004% to 0.061% by weight), scale 0-10, both crops) was 8, the “Foliar injury (in words)” value (Florida-47 tomato; [8]) was “from light leaf speckling to severe necrosis and plant decay” and the “Copper concentrations in tomato leaves, statement” value (Tygress tomato plants [2]; 7 WAT (1 week after treatment)) was “highest leaf copper concentrations”. The “Foliar Cu concentration” value (Tygress tomato plants [2]; Cu 0.4 lb/acre, tomato leaves 1 week after treatment) was 678 ppm, the “Marketable tomato yields compared to non-treated control, statement” value (Tygress tomato plants [3]; [9]) was “did not alter marketable yields relative to the non-treated control” and the Marketable yield (Tygress tomato plants [3]; Cu 0.4 lb/acre) was 1550 b g/plant. The “Toxicity compared to non-treated control plants, statement” value (Tygress tomato plants [4]; [9]) was “increased levels of toxicity” and the “Toxicity (0-10)” value (Tygress tomato plants [4]; Cu 0.4 lb/acre) was 6.

With EDTA chelated iron [BIOX-EDI] the Pepper toxicity (Aristotle bell pepper; [5]) was 9, the Pepper toxicity (Aristotle bell pepper; [6]) was 9 and the Pepper toxicity (Aristotle bell pepper; [7]) was 9. The Tomato toxicity (Florida-47 tomato; [5]) was 8, the Tomato toxicity (Florida-47 tomato; [6]) was 8 and the Tomato toxicity (Florida-47 tomato; [7]) was 8. For the same molecule, the “Foliar injury (in words)” value (Florida-47 tomato; [8]) was “from light leaf speckling to severe necrosis and plant decay”.

In the case of manganese glycinate [BIOX-GM], the Pepper toxicity (Aristotle bell pepper; [5]) was 7, the Pepper toxicity (Aristotle bell pepper; [6]) was 7 and the Pepper toxicity (Aristotle bell pepper; [7]) was 7. The Tomato toxicity (Florida-47 tomato; [5]) was 7, the Tomato toxicity (Florida-47 tomato; [6]) was 7 and the Tomato toxicity (Florida-47 tomato; [7]) was 7. The Toxicity scale score (Florida-47 tomato; similar manganese concentrations (0.015% to 0.124% by weight), scale 0-10, both crops) was 7 and the “Foliar injury (in words)” value (Florida-47 tomato; [8]) was “from light leaf speckling to severe necrosis and plant decay”.
